Assay results as given in publication PMC9693223 (Molecules, 2022).

Columns and labels:
Leishmania major = system: Leishmania major; parameters: method as in PMID 28453984; details: ref [36]; read-out: EC50 against Leishmania major; cited from earlier work
[1] = system: L. mexicana Cas9^ΔNT1+TcrNT2 promastigotes; test: Alamar blue drug sensitivity assay, L. mexicana Cas9^ΔNT1+TcrNT2 promastigotes; assay type: cell-based, Leishmania mexicana; details: Cas9^ΔNT1+TcrNT2 in comparison to L. mexicana Cas9^ΔNT1
From the text: We used L. mexicana promastigotes of the Cas9 strain developed by Beneke at al. to generate the ΔNT1 strain, and from there the Cas9^ΔNT1+TcrNT2 (see below); The original Cas9 strain was generously donated by Prof. Eva Gluenz (University of Bern, Switzerland). All strains in standard HOMEM (GIBCO, Life Technologies, Paisley, UK) supplemented with 10% heat-inactivated fetal bovine serum (FBS; PAA Laboratories, Linz, Austria) and 1% of a penicillin–streptomycin solution (10,000 U mL^−1 each; Life Technologies) at 25 °C, as described.
The Alamar blue assay (resazurin sodium salt) was used to determine the drug sensitivity of the L. mexicana promastigotes in vitro. The assay is based on the reduction of resazurin sodium salt (blue and non-fluorescent) to resorufin (pink color and fluorescent) by live cells. HOMEM medium with 10% FBS (100 μL) was added to all wells of a white 96-well plate apart from the first well. 200 μL of a known concentration of test compounds was diluted in HOMEM medium and placed in the first well. Compounds were tested in one plate and every compound was diluted over two rows (23 concentrations), leaving the last well of every dilution as a negative control having 100 μL HOMEM medium. Next, 100 μL of L. mexicana culture at a density of 2 × 10^6 cells mL^−1 was added into every well in the plate and incubated for 72 h at a temperature of 25 °C after which resazurin sodium salt (Sigma) (20 μL of a solution of 12.5 mg in 100 mL PBS) was added and the plate was incubated under the same conditions for a further 48 h. Fluorescence was measured in a FLUOstar OPTIMA plate reader (BMG Labtech, Germany), at a wavelength of 544 nm for excitation and 620 nm for emission. The EC50 values and fluorescence data were determined and plotted by the GraphPad Prism 8 Software using an equation for a sigmoid curve with variable slope. Pentamidine was used as positive control and every experiment was performed 3–4 times independently.

[2] = system: bloodstream form T. brucei; parameters: method as in PMID 23188714, PMID 23505454; details: ref [47],[54]; read-out: EC50 against bloodstream form T. brucei; cited from earlier work
[3] = system: T. cruzi epimastigotes (CL Brener strain); test: In vitro inhibition of proliferation of T. cruzi epimastigotes; assay type: cell-based, Trypanosoma cruzi; details: Trypanosoma cruzi; cell densities at the 5th day of proliferation, four independent experiments
Method: Trypomastigotes were obtained by infecting CHO-K1 cells. CHO-K1 cells were cultivated in RPMI-1640 medium supplemented with 10% heat-inactivated fetal calf serum (FCS), 0.15% (w/v) […], 100 µg mL^−1 penicillin and 130 µg mL^−1 streptomycin and incubated at 37 °C in a humidified atmosphere containing 5% CO2. CHO-K1 cells were initially incubated with metacyclic trypomastigotes obtained by in vitro differentiation of epimastigotes as previously described (multiplicity of infection: 50 parasites per cell) for 4 h. After washing out the non-internalized parasites, the cells were incubated overnight in RPMI medium supplemented with 10% FCS at 37 °C and then maintained at 33 °C in a humidified atmosphere containing 5% CO2 as previously reported. Infected cells were maintained at 33 °C in the presence of 10% FCS. Infected cell-derived trypomastigotes started to burst into the culture medium at the 5th day post-infection. Trypomastigotes collected at day 5 or 6 post infection were used for the viability assays.
The density of exponentially proliferating epimastigotes for each assay was adjusted to 2.0 × 10^6 parasites mL^−1, transferred into 96-well plates (200 μL/well) and incubated with different concentrations of the compounds 5-F-2′-deoxyuridine, 5-F-uracil, 5-F-uridine or benznidazole. A combination of 60 μM rotenone and 0.5 μM antimycin (RA) was used as a positive control for proliferation inhibition (positive control), as previously described. […] The epimastigote proliferation was measured as previously reported, by reading the optical density (OD) at 620 nm every 24 h for 9 days (which collects readings through the exponential and stationary phases). […] The half-maximal inhibitory concentrations (IC50) were determined during the exponential growth phase (fifth day) by adjusting a sigmoidal dose-response function to experimentally obtained data using GraphPad Prism 8. The compounds were assessed in quadruplicate in each experiment, and the results correspond to four independent experiments.

What does the source list for `O=c1[nH]c(=O)n([C@H]2C[C@H](O)[C@@H](CO)O2)cc1F` [5-F-2′-dUrd, 5-F-2′-deoxyuridine]?
EC50 (Leishmania major): 1.4 µM; RF vs. ΔNT1 (resistance factor) [1]: 14.8; EC50 [2]: 5.2 µM; IC50 [3]: 16.8 ± 0.01 µM
